The Kinase Knowledgebase extract (Sharma et al. 2016)
Several values for one entry are separate records, joined by “and”; a condition that tells them apart may be missing. Equal entries are not always repeated.

Target: EGFR (Human), P00533 [T790M/L858R]
Settings: nci-h1975

Chain of EGFR (Human), P00533 [T790M/L858R] (P00533 whole entry T790M/L858R, looked up): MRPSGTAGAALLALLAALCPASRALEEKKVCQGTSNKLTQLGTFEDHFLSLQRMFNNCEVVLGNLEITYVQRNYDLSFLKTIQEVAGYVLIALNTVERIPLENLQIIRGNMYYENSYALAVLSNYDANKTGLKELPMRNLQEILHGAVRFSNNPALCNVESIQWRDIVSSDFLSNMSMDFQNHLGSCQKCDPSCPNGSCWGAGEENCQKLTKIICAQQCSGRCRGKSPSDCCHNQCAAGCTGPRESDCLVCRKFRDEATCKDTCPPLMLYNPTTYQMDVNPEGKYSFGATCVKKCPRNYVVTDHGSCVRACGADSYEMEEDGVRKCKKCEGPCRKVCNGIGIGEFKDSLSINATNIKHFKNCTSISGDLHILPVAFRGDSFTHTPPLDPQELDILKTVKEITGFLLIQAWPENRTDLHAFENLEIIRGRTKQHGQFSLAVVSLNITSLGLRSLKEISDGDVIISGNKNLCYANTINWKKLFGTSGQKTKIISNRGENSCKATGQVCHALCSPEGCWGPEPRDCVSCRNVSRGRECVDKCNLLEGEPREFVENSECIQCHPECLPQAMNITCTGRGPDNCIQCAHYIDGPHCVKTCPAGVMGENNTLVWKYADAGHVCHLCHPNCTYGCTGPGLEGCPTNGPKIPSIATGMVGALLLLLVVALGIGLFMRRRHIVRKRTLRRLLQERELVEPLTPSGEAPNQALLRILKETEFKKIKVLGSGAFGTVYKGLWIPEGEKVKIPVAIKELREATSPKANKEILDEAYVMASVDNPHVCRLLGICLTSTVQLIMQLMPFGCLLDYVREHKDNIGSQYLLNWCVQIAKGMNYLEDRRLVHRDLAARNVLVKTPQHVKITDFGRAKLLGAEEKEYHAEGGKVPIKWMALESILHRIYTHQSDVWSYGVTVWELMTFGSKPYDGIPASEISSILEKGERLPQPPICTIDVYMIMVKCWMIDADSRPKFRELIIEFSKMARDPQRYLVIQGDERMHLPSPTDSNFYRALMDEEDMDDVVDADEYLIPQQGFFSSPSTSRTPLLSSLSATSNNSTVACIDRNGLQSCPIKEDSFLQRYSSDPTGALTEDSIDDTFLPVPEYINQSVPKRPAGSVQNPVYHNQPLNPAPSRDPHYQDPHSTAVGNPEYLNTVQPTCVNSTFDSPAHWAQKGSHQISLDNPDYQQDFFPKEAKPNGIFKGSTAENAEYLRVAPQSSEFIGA

Compound	EC50
CCC(C)n1nc(N2C[C@@H](CO)NC2=O)c2cnc(Nc3ccnc(-c4cnn(S(=O)(=O)C5CC5)c4)n3)cc21 (some centres not stated)	5590 nM
CC(C)n1nc(N2CCC3(COC3)C2)c2cnc(Nc3ccnc(-c4cnn(S(=O)(=O)C5CC5)c4)n3)cc21	431 nM
CCC(C)n1nc(N2CC(C(C)(C)O)C2)c2cnc(Nc3ccnc(N4CCC(O)C(C)(C)C4)n3)cc21 (configuration not stated)	288 nM
CC(C)n1nc(N2CC[C@H](CO)C2)c2cnc(Nc3ccnc(-c4cnn(S(=O)(=O)C5CC5)c4)n3)cc21	139 nM
CC(C)n1nc(N2CCCC2)c2cnc(Nc3ccnc(-c4cnn(CC5CC5)c4)n3)cc21	1060 nM
CC(C)n1nc(N2CCNC(=O)C2)c2cnc(Nc3ccnc(-c4cnn(S(=O)(=O)C5CC5)c4)n3)cc21	738 nM
CC[C@H](C)n1nc(N2CC3(COC3)C2)c2cnc(Nc3ccnc(OCC(C)(C)S(C)(=O)=O)n3)cc21	785 nM
CC(C)n1nc(N2CC(CO)C2)c2cnc(Nc3ccnc(-c4cnn(S(=O)(=O)C5CC5)c4)n3)cc21	271 nM
CC(C)n1nc(NCCC2OCC(N)CO2)c2cnc(Nc3ccnc(N4CCC(C)(O)CC4)n3)cc21 (configuration not stated)	> 10000 nM
CC(C)n1nc(OC2CCOC2)c2cnc(Nc3ccnc(-c4cnn(S(=O)(=O)C5CC5)c4)n3)cc21 (configuration not stated)	798 nM
CCC(C)n1nc(N2CC(N)C(F)(F)C2)c2cnc(Nc3ccnc(N4CCC(C)(O)CC4)n3)cc21 (configuration not stated)	761 nM
CC(C)n1nc(N2CCOCC2)c2cnc(Nc3ccnc(N4CCC(O)C(C)(C)C4)n3)cc21 (configuration not stated)	1410 nM
CC(C)n1nc(N2CCN=C2O)c2cnc(Nc3ccnc(-c4cnn(S(=O)(=O)C5CC5)c4)n3)cc21	237 nM
CC(C)n1nc(C2CCOC2)c2cnc(Nc3ccnc(-c4cnn(S(=O)(=O)C5CC5)c4)n3)cc21 (configuration not stated)	1460 nM
CC[C@H](C)n1nc(N2CC[C@@H](O)C2)c2cnc(Nc3ccnc(N4CC[C@](C)(O)[C@H](F)C4)n3)cc21	521 nM
CC(C)n1nc(N2CC[C@@H](O)C2)c2cnc(Nc3ccnc(N4CC[C@@H](O)[C@@H](F)C4)n3)cc21	404 nM
CCC(C)n1nc(N2CCN(C(=O)[C@H](C)O)CC2)c2cnc(Nc3ccnc(-c4cnn(S(=O)(=O)C5CC5)c4)n3)cc21 (some centres not stated)	813 nM
CCS(=O)(=O)n1cc(-c2nccc(Nc3cc4c(cn3)c(NC3CCOC3)nn4C(C)C)n2)cn1 (configuration not stated)	272 nM
CC(C)n1nc(N2CCC(C)(C(N)=O)C2)c2cnc(Nc3ccnc(N4CCC(C)(O)CC4)n3)cc21 (configuration not stated)	2860 nM

Compound	EC50
CCC(C)n1nc(N2CC[C@@H](C(N)=O)C2)c2cnc(Nc3ccnc(N4CCC(C)(O)CC4)n3)cc21 (some centres not stated)	7170 nM
CC[C@@H](C)n1nc(N2CC[C@@H](O)C2)c2cnc(Nc3ccnc(N4CC[C@](C)(C(N)=O)C4)n3)cc21	4050 nM
Cc1cn[nH]c1-c1nn(C(C)C)c2cc(Nc3ccnc(N4CCC(O)C(C)(C)C4)n3)ncc12 (configuration not stated)	1710 nM
CC(C)n1ncc2cnc(Nc3ccnc(N4CCC(O)C(C)(C)C4)n3)cc21 (configuration not stated)	110 nM
CC(C)n1nc(NC(C)(C)C#N)c2cnc(Nc3ccnc(N4CC[C@H](O)[C@H](F)C4)n3)cc21	8270 nM
CC(C)n1nc(N2CCCC2=O)c2cnc(Nc3ccnc(-c4cnn(S(=O)(=O)C5CC5)c4)n3)cc21	232 nM
CC[C@H](C)n1nc(N2CC(C(C)(C)O)C2)c2cnc(Nc3ccnc(N4CC[C@@H](O)[C@@H](F)C4)n3)cc21	429 nM
CCC(C)n1nc(N2CC[C@H](O)C2=O)c2cnc(Nc3ccnc(-c4cnn(S(=O)(=O)C5CC5)c4)n3)cc21 (some centres not stated)	696 nM
CC(n1nc(N2CC3(COC3)C2)c2cnc(Nc3ccnc(-c4cnn(S(=O)(=O)C5CC5)c4)n3)cc21)C(F)(F)F (configuration not stated)	699 nM
CC(C)n1nc(N2CCOC(CO)C2)c2cnc(Nc3ccnc(-c4cnn(S(=O)(=O)C5CC5)c4)n3)cc21 (configuration not stated)	241 nM
CC(C)n1nc(N2CC3(COC3)C2)c2cnc(Nc3ccnc(-c4cnn(CC5CC5)c4)n3)cc21	732 nM
CC(C)n1nc(N2CC(N)CC2=O)c2cnc(Nc3ccnc(N4CCC(C)(O)CC4)n3)cc21 (configuration not stated)	> 10000 nM
COC1CCN(c2nccc(Nc3cc4c(cn3)c(N3CC5(COC5)C3)nn4C(C)C)n2)CC1	388 nM
CC(C)n1nc(N2CC(C(=O)NCC(F)(F)F)C2)c2cnc(Nc3ccnc(-c4cnn(S(=O)(=O)C5CC5)c4)n3)cc21	193 nM
CC(C)n1nc(N2CC(C(=O)N3CCOCC3)C2)c2cnc(Nc3ccnc(-c4cnn(S(=O)(=O)C5CC5)c4)n3)cc21	344 nM
CCC(C)n1nc(N2CCS(=N)(=O)CC2)c2cnc(Nc3ccnc(N4CCC(C)(O)CC4)n3)cc21 (configuration not stated)	9980 nM
CC(C)n1nc(N2CC(C(=O)N(C)C)C2)c2cnc(Nc3ccnc(-c4cnn(S(=O)(=O)C5CC5)c4)n3)cc21	159 nM
CC(C)n1nc(N2CC(C(=O)N3CC[C@@H](CO)C3)C2)c2cnc(Nc3ccnc(-c4cnn(S(=O)(=O)C5CC5)c4)n3)cc21	1830 nM
CC(C)n1nc(N2CC(C(=O)NC3CC(O)C3)C2)c2cnc(Nc3ccnc(-c4cnn(S(=O)(=O)C5CC5)c4)n3)cc21 (configuration not stated)	> 10000 nM

Compound	EC50
CCC(C)n1nc(N2CCNC2=O)c2cnc(Nc3ccnc(-c4cnn(S(=O)(=O)C5CC5)c4)n3)cc21 (configuration not stated)	138 nM
CC(C)c1nn(C(C)C)c2cc(Nc3ccnc(-c4cnn(S(=O)(=O)C5CC5)c4)n3)ncc12	3700 nM
CC(C)n1nc(NC2CCS(=O)(=O)C2)c2cnc(Nc3ccnc(-c4cnn(S(=O)(=O)C5CC5)c4)n3)cc21 (configuration not stated)	1640 nM
CC(Nc1nn(C(C)C)c2cc(Nc3ccnc(-c4cnn(S(=O)(=O)C5CC5)c4)n3)ncc12)C(N)=O (configuration not stated)	4620 nM
CC[C@H](C)n1nc(N2CC3(COC3)C2)c2cnc(Nc3ccnc(N4CC[C@](C)(O)[C@H](F)C4)n3)cc21	874 nM and 631 nM
CC(C)n1nc(N2CCCNC2=O)c2cnc(Nc3ccnc(-c4cnn(S(=O)(=O)C5CC5)c4)n3)cc21	765 nM
CC(C)n1nc(N2CCC3(CNC(=O)C3)C2)c2cnc(Nc3ccnc(-c4cnn(S(=O)(=O)C5CC5)c4)n3)cc21 (configuration not stated)	1790 nM
CC(C)n1nc(N2CC3(COC3)C2)c2cnc(Nc3ccnc(N4CCC(O)C(C)(C)C4)n3)cc21 (configuration not stated)	159 nM
CCC(C)n1nc(N2CCN(C(=O)[C@@H](C)O)CC2)c2cnc(Nc3ccnc(-c4cnn(S(=O)(=O)C5CC5)c4)n3)cc21 (some centres not stated)	1090 nM
CC(C)n1nc(N2CC(C(C)(C)C(N)=O)C2)c2cnc(Nc3ccnc(N4CCC(C)(O)CC4)n3)cc21	> 10000 nM
CC(C)n1nc(N2CCOC2=O)c2cnc(Nc3ccnc(-c4cnn(S(=O)(=O)C5CC5)c4)n3)cc21	206 nM
CCC(C)n1nc(N2CC[C@@H](O)C2=O)c2cnc(Nc3ccnc(-c4cnn(S(=O)(=O)C5CC5)c4)n3)cc21 (some centres not stated)	586 nM
CC(C)n1nc(N2CC(C(=O)N3CC[C@H](CO)C3)C2)c2cnc(Nc3ccnc(-c4cnn(S(=O)(=O)C5CC5)c4)n3)cc21	1160 nM
CC(C)n1nc(NC2CCOCC2)c2cnc(Nc3ccnc(-c4cnn(S(=O)(=O)C5CC5)c4)n3)cc21	1110 nM
CCC(C)n1nc(N2CC(F)(F)C2)c2cnc(Nc3ccnc(N4CCC(C)(O)CC4)n3)cc21 (configuration not stated)	1600 nM
CC(C)n1nc(N2CC3(CN(CC(F)(F)F)C3)C2)c2cnc(Nc3ccnc(-c4cnn(S(=O)(=O)C5CC5)c4)n3)cc21	1140 nM
CC(C)n1nc(N2CCC(O)C2)c2cnc(Nc3ccnc(-c4cnn(S(=O)(=O)C5CC5)c4)n3)cc21 (configuration not stated)	201 nM
CC(C)n1ncc2cnc(Nc3ccnc(-c4cnn(CC5CC5)c4)n3)cc21	498 nM
CCNC(=O)C1CN(c2nn(C(C)C)c3cc(Nc4ccnc(-c5cnn(S(=O)(=O)C6CC6)c5)n4)ncc23)C1	484 nM
